The target in one assay is T1, human recombinant HDAC1 (Homo sapiens, UniProt Q13547).
T1 construct: purchased Enzo Life Science BML-SE456
The experiment in a line: HDAC1 enzyme activity inhibition assay (HDAC Fluorimetric Drug Discovery Kit). The class given is biochemical. The following applies: 30° C. 60 minutes. The procedure, abridged: (§1)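 Fluorimetric deacetylase assay: 5-fold serial compound dilutions, 0.3 μg recombinant human enzyme (HDAC1 or HDAC6, same protocol), 10 μM Fluor de Lys-SIRT1 substrate, 60 min at 30 °C. Signal developed 30 min, measured at 360/460 nm; IC50 values derived.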

The next assay addresses T2, human recombinant HDAC6 (Homo sapiens, UniProt Q9UBN7).
T2 construct: purchased Calbiochem 382180
T2 sequence (Q9UBN7 1-1215): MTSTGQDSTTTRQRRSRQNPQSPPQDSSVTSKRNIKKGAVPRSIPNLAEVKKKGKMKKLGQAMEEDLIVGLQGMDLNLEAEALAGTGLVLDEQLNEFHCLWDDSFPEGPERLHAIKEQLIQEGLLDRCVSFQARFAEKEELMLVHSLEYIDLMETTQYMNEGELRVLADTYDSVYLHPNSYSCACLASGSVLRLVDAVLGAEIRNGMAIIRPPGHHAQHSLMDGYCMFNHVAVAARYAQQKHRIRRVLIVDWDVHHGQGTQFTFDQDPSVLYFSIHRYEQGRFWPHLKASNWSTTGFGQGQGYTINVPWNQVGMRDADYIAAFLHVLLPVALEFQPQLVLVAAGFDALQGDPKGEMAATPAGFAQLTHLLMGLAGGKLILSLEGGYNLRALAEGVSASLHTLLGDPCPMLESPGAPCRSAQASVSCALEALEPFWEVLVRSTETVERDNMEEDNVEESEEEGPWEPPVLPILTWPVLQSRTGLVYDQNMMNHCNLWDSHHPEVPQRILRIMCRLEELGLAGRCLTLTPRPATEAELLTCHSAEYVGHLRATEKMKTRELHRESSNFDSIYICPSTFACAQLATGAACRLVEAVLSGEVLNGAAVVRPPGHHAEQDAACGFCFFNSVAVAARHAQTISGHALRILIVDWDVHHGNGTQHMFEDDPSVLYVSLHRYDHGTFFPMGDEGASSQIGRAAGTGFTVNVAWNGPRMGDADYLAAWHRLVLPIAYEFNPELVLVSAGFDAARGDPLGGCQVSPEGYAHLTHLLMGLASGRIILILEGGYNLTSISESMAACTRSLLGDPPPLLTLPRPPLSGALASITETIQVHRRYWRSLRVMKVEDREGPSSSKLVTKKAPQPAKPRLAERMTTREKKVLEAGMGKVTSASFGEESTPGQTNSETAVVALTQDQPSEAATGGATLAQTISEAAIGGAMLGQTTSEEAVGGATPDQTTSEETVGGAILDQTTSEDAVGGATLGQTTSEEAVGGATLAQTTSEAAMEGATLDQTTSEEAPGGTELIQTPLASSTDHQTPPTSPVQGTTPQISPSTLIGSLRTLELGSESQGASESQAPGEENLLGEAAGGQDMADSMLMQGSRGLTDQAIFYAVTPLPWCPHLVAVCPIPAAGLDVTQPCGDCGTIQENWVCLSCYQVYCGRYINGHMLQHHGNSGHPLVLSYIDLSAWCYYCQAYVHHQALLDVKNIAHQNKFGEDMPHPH
The experiment in a line: HDAC6 enzyme activity inhibition assay (HDAC Fluorimetric Drug Discovery Kit). The class given is biochemical. The following applies: for HDAC6 selectivity (fold): HDAC6 over HDAC1; for IC50: human recombinant HDAC6, same protocol as HDAC1, read-out: HDAC6. The procedure, abridged: as §1

Setting [1] is: human recombinant HDAC1, Fluor de Lys substrate 10 μM.
[2] abbreviates: human recombinant HDAC1, Fluor de Lys substrate.

T1 sequence (Q13547 whole entry): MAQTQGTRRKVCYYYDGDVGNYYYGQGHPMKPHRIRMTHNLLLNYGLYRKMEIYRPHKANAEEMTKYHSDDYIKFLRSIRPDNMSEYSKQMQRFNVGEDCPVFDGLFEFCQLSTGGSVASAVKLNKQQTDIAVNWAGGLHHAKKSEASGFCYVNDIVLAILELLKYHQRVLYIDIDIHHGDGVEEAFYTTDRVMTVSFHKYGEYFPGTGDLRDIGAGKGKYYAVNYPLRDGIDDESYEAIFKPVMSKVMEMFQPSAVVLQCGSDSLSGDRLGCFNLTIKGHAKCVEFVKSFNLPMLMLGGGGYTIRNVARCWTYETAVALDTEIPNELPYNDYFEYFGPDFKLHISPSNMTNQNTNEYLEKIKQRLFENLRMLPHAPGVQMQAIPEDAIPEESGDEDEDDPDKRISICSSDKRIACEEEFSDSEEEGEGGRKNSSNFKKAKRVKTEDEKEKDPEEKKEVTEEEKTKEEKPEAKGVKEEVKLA

Turning to `CC(C)(C)CN1CCN(Cc2ccc(N(Cc3ccc(-c4nnc(C(F)(F)F)o4)cc3F)C(=O)N3CCS(=O)(=O)CC3)cc2)CC1` [Compound 21897, N-(2-fluoro-4-(5-(trifluoromethyl)-1,3,4-oxadiazol-2-yl)benzyl)-N-(4-((4-neopentylpiperazin-1-yl)methyl)phenyl)thiomorpholine-4-carboxamide 1,1-dioxide], the IC50 on human recombinant HDAC1 (setting [1]) is 68.1 µM. In addition, on human recombinant HDAC6, the “HDAC6 selectivity (fold)” value is on record as 140 fold and the IC50 was 0.487 µM.
For `O=C(N1CCS(=O)(=O)CC1)N(Cc1ccc(-c2nnc(C(F)(F)F)o2)cc1F)c1ccc(CN2CCN(C3COC3)CC2)cc1` [Compound 21898, N-(2-fluoro-4-(5-(trifluoromethyl)-1,3,4-oxadiazol-2-yl)benzyl)-N-(4-((4-(oxetan-3-yl)piperazin-1-yl)methyl)phenyl)thiomorpholine-4-carboxamide 1,1-dioxide], the IC50 on human recombinant HDAC1 (setting [1]) came out at 40.6 µM; at human recombinant HDAC6, 0.247 µM. Besides, the “HDAC6 selectivity (fold)” value on human recombinant HDAC6 stood at 164 fold.
For `CCN1CCN(Cc2ccc(N(Cc3ccc(-c4nnc(C(F)F)o4)cc3F)C(=O)N3CCS(=O)(=O)CC3)cc2)CC1` [Compound 21899, N-(4-(5-(difluoromethyl)-1,3,4-oxadiazol-2-yl)-2-fluorobenzyl)-N-(4-((4-ethylpiperazin-1-yl)methyl)phenyl)thiomorpholine-4-carboxamide 1,1-dioxide], the results for the IC50 at human recombinant HDAC1 (setting [1]) and on human recombinant HDAC6 were 75.7 µM and 0.055 µM, respectively. Further, the “HDAC6 selectivity (fold)” value on human recombinant HDAC6 is 1364 fold.
Consider `O=C(N1CCN(C2COC2)CC1)N(Cc1ccc(-c2nnc(C(F)F)o2)cn1)c1ccccc1` [Compound 21905, N-((5-(5-(Difluoromethyl)-1,3,4-oxadiazol-2-yl)pyridin-2-yl)methyl)-4-(oxetan-3-yl)-N-phenylpiperazine-1-carboxamide], for which the IC50 on human recombinant HDAC1 (setting [1]) is 56.1 µM. Further, at human recombinant HDAC6, the “HDAC6 selectivity (fold)” value is listed as 1454 fold and the IC50 was 0.039 µM.
As for `O=C(N1CCOCC1)N(Cc1ccc(-c2nnc(C(F)(F)F)o2)cc1F)c1ccc(F)c(Cl)c1` [Compound 21930, N-(3-chloro-4-fluorophenyl)-N-(2-fluoro-4-(5-(trifluoromethyl)-1,3,4-oxadiazol-2-yl)benzyl)morpholine-4-carboxamide], the IC50 on human recombinant HDAC1 (setting [2]) came to 14.6 µM. At human recombinant HDAC6, the “HDAC6 selectivity (fold)” value amounted to 35 fold and the IC50 turned out to be 0.419 µM.
Take `O=C(N1CCN(C2COC2)CC1)N(Cc1ccc(-c2nnc(C(F)F)o2)cn1)c1ccc(F)cc1` [Compound 21941, N-((5-(5-(Difluoromethyl)-1,3,4-oxadiazol-2-yl)pyridin-2-yl)methyl)-N-(4-fluorophenyl)-4-(oxetan-3-yl)piperazine-1-carboxamide]: on human recombinant HDAC1 (setting [2]), the IC50 is 46 µM. Besides, at human recombinant HDAC6, the “HDAC6 selectivity (fold)” value is recorded as 446 fold and the IC50 amounted to 0.103 µM.
In the case of `O=C(N1CCN(C2COC2)CC1)N(Cc1ccc(-c2nnc(C(F)F)o2)cc1F)c1cccc(Cl)c1` [Compound 21943, N-(3-Chlorophenyl)-N-(4-(5-(difluoromethyl)-1,3,4-oxadiazol-2-yl)-2-fluorobenzyl)-4-(oxetan-3-yl)piperazine-1-carboxamide], the IC50 on human recombinant HDAC1 (setting [2]) stood at 29.6 µM. At human recombinant HDAC6, the “HDAC6 selectivity (fold)” value is reported as 611 fold and the IC50 was 0.048 µM.
The matching figures for `COc1cccc(N(Cc2ccc(-c3nnc(C(F)F)o3)cc2)C(=O)N2CCN(C3COC3)CC2)c1` [Compound 21948, N-(4-(5-(Difluoromethyl)-1,3,4-oxadiazol-2-yl)benzyl)-N-(3-methoxyphenyl)-4-(oxetan-3-yl)piperazine-1-carboxamide]: 46.3 µM, 188 fold and 0.246 µM.
The corresponding values for `COc1cccc(N(Cc2ccc(-c3nnc(C(F)F)o3)cc2F)C(=O)N2CCN(C3COC3)CC2)c1` [Compound 21949, N-(4-(5-(Difluoromethyl)-1,3,4-oxadiazol-2-yl)-2-fluorobenzyl)-N-(3-methoxyphenyl)-4-(oxetan-3-yl)piperazine-1-carboxamide] are 48.3 µM, 383 fold and 0.126 µM.
On to `O=C(N1CCN(C2COC2)CC1)N(Cc1ccc(-c2nnc(C(F)F)o2)cc1)c1ccccc1` [Compound 21954, N-(4-(5-(Difluoromethyl)-1,3,4-oxadiazol-2-yl)benzyl)-4-(oxetan-3-yl)-N-phenylpiperazine-1-carboxamide], for which the figures for the IC50 on human recombinant HDAC1 (setting [2]) and on human recombinant HDAC6 were 35.7 µM and 0.145 µM, respectively. At human recombinant HDAC6, the “HDAC6 selectivity (fold)” value is 245 fold.
Consider `O=C(NCCN1CCS(=O)(=O)CC1)N(Cc1ccc(-c2nnc(C(F)F)o2)cc1F)c1ccccc1` [Compound 21985, 1-(4-(5-(Difluoromethyl)-1,3,4-oxadiazol-2-yl)-2-fluorobenzyl)-3-(2-(1,1-dioxidothiomorpholino)ethyl)-1-phenylurea], for which the IC50 on human recombinant HDAC1 (setting [2]) is 21.4 µM. Moreover, at human recombinant HDAC6, the “HDAC6 selectivity (fold)” value stood at 480 fold and the IC50 worked out at 0.045 µM.

(Values after patent US10717716B2, “1,3,4-oxadiazole derivative compounds as histone deacetylase 6 inhibitor, and the pharmaceutical composition comprising the same” (Chong Kun Dang Pharmaceutical Corp., priority 2015, dated 2020).)
